Measured values from US12150998B2, “Bicyclic peptide ligands specific for P-selectin” (BicycleTx Limited, priority 2021, dated 2024).
Like-named read-outs stand apart in the source and are kept apart here. Starred links: 1 amine or outer side, 2 acyl side, 3 side chain; linkers in the order of their positions; H or OH if unused. Positions of bridges follow the written chain, without caps; N, C: chain ends. Residues, ends and D or L forms follow the SMILES beside them. Chains are numbered I, II in the order given. X3 = O=C(CCOCCN(CCOCCC(=O)NCCOCCOCCOCCOCCOCCOCCOCCOCCOCCOCCOCCOCCOCCOCCOCCOCCOCCOCCOCCOCCOCCOCCOCCn1cc(CCC(=O)[*:2])nn1)CCOCCC(=O)NCCOCCOCCOCCOCCOCCOCCOCCOCCOCCOCCOCCOCCOCCOCCOCCOCCOCCOCCOCCOCCOCCOCCOCCn1cc(CCC(=O)[*:3])nn1)NCCOCCOCCOCCOCCOCCOCCOCCOCCOCCOCCOCCOCCOCCOCCOCCOCCOCCOCCOCCOCCOCCOCCOCCn1cc(CCC(=O)[*:1])nn1; X5 = O=C(CCCC(=O)NCCOCCOCCOCCOCCOCCOCCOCCOCCOCCOCCn1cc(CCC(=O)[*:2])nn1)NCCOCCOCCOCCOCCOCCOCCOCCOCCOCCOCCn1cc(CCC(=O)[*:1])nn1; TATA = O=C(CC[*:1])N1CN(C(=O)CC[*:2])CN(C(=O)CC[*:3])C1

Molecular target: T1, human P-Selectin protein (Homo sapiens, UniProt P16109)
T1 sequence (P16109 42-830): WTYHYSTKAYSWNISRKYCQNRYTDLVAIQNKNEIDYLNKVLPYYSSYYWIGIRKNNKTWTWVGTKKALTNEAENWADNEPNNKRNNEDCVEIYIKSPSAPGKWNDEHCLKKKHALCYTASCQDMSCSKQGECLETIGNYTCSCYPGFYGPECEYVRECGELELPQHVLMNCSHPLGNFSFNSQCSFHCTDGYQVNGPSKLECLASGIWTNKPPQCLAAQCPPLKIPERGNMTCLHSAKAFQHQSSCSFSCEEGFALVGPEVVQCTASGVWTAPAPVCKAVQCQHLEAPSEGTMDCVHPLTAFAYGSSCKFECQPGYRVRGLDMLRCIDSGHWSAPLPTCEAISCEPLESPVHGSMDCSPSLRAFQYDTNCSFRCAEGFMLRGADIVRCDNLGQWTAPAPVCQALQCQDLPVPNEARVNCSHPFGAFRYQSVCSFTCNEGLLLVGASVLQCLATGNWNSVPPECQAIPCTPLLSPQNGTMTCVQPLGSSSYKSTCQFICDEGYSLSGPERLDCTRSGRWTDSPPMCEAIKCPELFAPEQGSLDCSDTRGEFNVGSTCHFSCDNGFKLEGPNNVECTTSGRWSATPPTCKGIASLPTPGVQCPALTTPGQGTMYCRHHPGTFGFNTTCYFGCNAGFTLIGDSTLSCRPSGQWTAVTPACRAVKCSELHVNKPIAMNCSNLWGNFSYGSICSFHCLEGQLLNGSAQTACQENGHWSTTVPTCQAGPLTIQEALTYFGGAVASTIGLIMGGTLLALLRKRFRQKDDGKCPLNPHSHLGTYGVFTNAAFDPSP
Assay: SPR binding assay (Biacore)
Settings: recombinant biotinylated human P-Selectin, 25° C.
Experimental: Biacore experiments were performed to determine ka (M−1s−1), kd (s−1), KD (nM) values of monomeric peptides binding to human Selectin proteins. Recombinant biotinylated human P-Selectin protein was used. For analysis of binding, either a Biacore 3000 or 5200 instrument was used with a CMS sensor chip (GE Healthcare). For sensor chip surface preparation, streptavidin was immobilized on the chip using standard amine-coupling chemistry at 25° C. with HBS-N (10 mM HEPES, 0.15 M NaCl, pH 7.4) as the running buffer. The carboxymethyl dextran surface was activated with a 12 min injection of a 1:1 ratio of 0.4 M 1-ethyl-3-(3-dim ethyl aminopropyl) carbodiimide hydrochloride (EDC)/0.1 M N-hydroxy succinimide (NHS) at a flow rate of 10 μl/min. For capture of streptavidin, protein was diluted to 0.2 mg/ml in 10 mM sodium acetate (pH 4.5) and captured by injecting 70 μl onto the activated chip surface. Residual activated groups were blocked with a 7 min injection of 1 M ethanolamine (pH 8.5). Biotinylated protein stock was diluted 1:100 in HBS-N and captured on one flow cell at 5 μl/min to a level of 1000-1500 RU. Buffer was changed to PBS/0.05% Tween 20 and a dilution series of the peptides was prepared in this buffer with a final DMSO concentration of 0.5%. The top concentration of the analyte varied from 200 nM to 50 μM; depending on predicted affinity of the interaction. In all cases a titration was performed with either seven 2-fold dilutions or five 3-fold dilutions. The SPR analysis was run at 25° C. with a flow rate of 50-80 μl/min with 60 seconds association and a suitable disassociation period (100-900 seconds). Data were corrected for DMSO excluded volume effects. All data were double-referenced for blank injections and reference surface using standard processing procedures and data processing and kinetic fitting were performed using Scrubber software, version 2.0c (BioLogic Software). Data were fitted using mass transport model allowing for mass transport effects where appropriate.

Row | Kd (read-out: Affinity KD determined by SPR) [nM] | Compound | Kd (Affinity KD determined by SPR) [nM]
1 | – | CSCC[C@@H]1NC(=O)[C@H](Cc2ccc(O)cc2)NC(=O)[C@@H](NC(=O)[C@H](C)NC(C)=O)CSCCC(=O)N2CN3CN(C2)C(=O)CCSC[C@H](NC(=O)[C@H](Cc2c[nH]c4ccccc24)NC(=O)[C@H](CCC(=O)O)NC1=O)C(=O)N[C@@H](CC(=O)O)C(=O)N[C@@H](C(C)C)C(=O)N[C@@H]([C@@H](C)O)C(=O)N[C@@H](CC(=O)O)C(=O)N[C@@H](Cc1ccc(O)cc1)C(=O)NCC(=O)N[C@H](C(=O)N[C@@H](CCCCNC(=O)CCc1cn(CCOCCOCCOCCOCCOCCOCCOCCOCCOCCOCCOCCOCCOCCOCCOCCOCCOCCOCCOCCOCCOCCOCCOCCNC(=O)CCOCC(COCCC(=O)NCCOCCOCCOCCOCCOCCOCCOCCOCCOCCOCCOCCOCCOCCOCCOCCOCCOCCOCCOCCOCCOCCOCCOCCn2cc(CCC(=O)NCCCC[C@H](NC(=O)[C@@H]4CSCCC(=O)N5CN6CN(C5)C(=O)CCSC[C@H](NC(=O)[C@H](Cc5c[nH]c7ccccc57)NC(=O)[C@H](CCC(=O)O)NC(=O)[C@H](CCSC)NC(=O)[C@H](Cc5ccc(O)cc5)NC(=O)[C@@H](NC(=O)[C@H](C)NC(C)=O)CSCCC6=O)C(=O)N[C@@H](CC(=O)O)C(=O)N[C@@H](C(C)C)C(=O)N[C@@H]([C@@H](C)O)C(=O)N[C@@H](CC(=O)O)C(=O)N[C@@H](Cc5ccc(O)cc5)C(=O)NCC(=O)N4)C(N)=O)nn2)(COCCC(=O)NCCOCCOCCOCCOCCOCCOCCOCCOCCOCCOCCOCCOCCOCCOCCOCCOCCOCCOCCOCCOCCOCCOCCOCCn2cc(CCC(=O)NCCCC[C@H](NC(=O)[C@@H]4CSCCC(=O)N5CN6CN(C5)C(=O)CCSC[C@H](NC(=O)[C@H](Cc5c[nH]c7ccccc57)NC(=O)[C@H](CCC(=O)O)NC(=O)[C@H](CCSC)NC(=O)[C@H](Cc5ccc(O)cc5)NC(=O)[C@@H](NC(=O)[C@H](C)NC(C)=O)CSCCC6=O)C(=O)N[C@@H](CC(=O)O)C(=O)N[C@@H](C(C)C)C(=O)N[C@@H]([C@@H](C)O)C(=O)N[C@@H](CC(=O)O)C(=O)N[C@@H](Cc5ccc(O)cc5)C(=O)NCC(=O)N4)C(N)=O)nn2)COCCC(=O)NCCOCCOCCOCCOCCOCCOCCOCCOCCOCCOCCOCCOCCOCCOCCOCCOCCOCCOCCOCCOCCOCCOCCOCCn2cc(CCC(=O)NCCCC[C@H](NC(=O)[C@@H]4CSCCC(=O)N5CN6CN(C5)C(=O)CCSC[C@H](NC(=O)[C@H](Cc5c[nH]c7ccccc57)NC(=O)[C@H](CCC(=O)O)NC(=O)[C@H](CCSC)NC(=O)[C@H](Cc5ccc(O)cc5)NC(=O)[C@@H](NC(=O)[C@H](C)NC(C)=O)CSCCC6=O)C(=O)N[C@@H](CC(=O)O)C(=O)N[C@@H](C(C)C)C(=O)N[C@@H]([C@@H](C)O)C(=O)N[C@@H](CC(=O)O)C(=O)N[C@@H](Cc5ccc(O)cc5)C(=O)NCC(=O)N4)C(N)=O)nn2)nn1)C(N)=O)CSCCC3=O [BCY5465] | 140
2 | – | I: Ac-ACYMEWCDVTDYGCK-NH2 / II: Ac-ACYMEWCDVTDYGCK-NH2 / III: Ac-ACYMEWCDVTDYGCK-NH2 (linker I:2-I:7-I:14, II:2-II:7-II:14, III:2-III:7-III:14 via TATA; linker I:15-II:15-III:15 via X3) [BCY5461] | 230
3 | – | CSCC[C@@H]1NC(=O)[C@H](Cc2ccc(O)cc2)NC(=O)[C@@H](NC(=O)[C@H](C)NC(C)=O)CSCCC(=O)N2CN3CN(C2)C(=O)CCSC[C@H](NC(=O)[C@H](Cc2c[nH]c4ccccc24)NC(=O)[C@H](CCC(=O)O)NC1=O)C(=O)N[C@@H](CC(=O)O)C(=O)N[C@@H](C(C)C)C(=O)N[C@@H]([C@@H](C)O)C(=O)N[C@@H](CC(=O)O)C(=O)N[C@@H](Cc1ccc(O)cc1)C(=O)NCC(=O)N[C@H](C(=O)N[C@@H](CCCCNC(=O)CCc1cn(CCOCCOCCOCCOCCOCCOCCOCCOCCOCCOCCNC(=O)CCOCC(COCCC(=O)NCCOCCOCCOCCOCCOCCOCCOCCOCCOCCOCCn2cc(CCC(=O)NCCCC[C@H](NC(=O)[C@@H]4CSCCC(=O)N5CN6CN(C5)C(=O)CCSC[C@H](NC(=O)[C@H](Cc5c[nH]c7ccccc57)NC(=O)[C@H](CCC(=O)O)NC(=O)[C@H](CCSC)NC(=O)[C@H](Cc5ccc(O)cc5)NC(=O)[C@@H](NC(=O)[C@H](C)NC(C)=O)CSCCC6=O)C(=O)N[C@@H](CC(=O)O)C(=O)N[C@@H](C(C)C)C(=O)N[C@@H]([C@@H](C)O)C(=O)N[C@@H](CC(=O)O)C(=O)N[C@@H](Cc5ccc(O)cc5)C(=O)NCC(=O)N4)C(N)=O)nn2)(COCCC(=O)NCCOCCOCCOCCOCCOCCOCCOCCOCCOCCOCCn2cc(CCC(=O)NCCCC[C@H](NC(=O)[C@@H]4CSCCC(=O)N5CN6CN(C5)C(=O)CCSC[C@H](NC(=O)[C@H](Cc5c[nH]c7ccccc57)NC(=O)[C@H](CCC(=O)O)NC(=O)[C@H](CCSC)NC(=O)[C@H](Cc5ccc(O)cc5)NC(=O)[C@@H](NC(=O)[C@H](C)NC(C)=O)CSCCC6=O)C(=O)N[C@@H](CC(=O)O)C(=O)N[C@@H](C(C)C)C(=O)N[C@@H]([C@@H](C)O)C(=O)N[C@@H](CC(=O)O)C(=O)N[C@@H](Cc5ccc(O)cc5)C(=O)NCC(=O)N4)C(N)=O)nn2)COCCC(=O)NCCOCCOCCOCCOCCOCCOCCOCCOCCOCCOCCn2cc(CCC(=O)NCCCC[C@H](NC(=O)[C@@H]4CSCCC(=O)N5CN6CN(C5)C(=O)CCSC[C@H](NC(=O)[C@H](Cc5c[nH]c7ccccc57)NC(=O)[C@H](CCC(=O)O)NC(=O)[C@H](CCSC)NC(=O)[C@H](Cc5ccc(O)cc5)NC(=O)[C@@H](NC(=O)[C@H](C)NC(C)=O)CSCCC6=O)C(=O)N[C@@H](CC(=O)O)C(=O)N[C@@H](C(C)C)C(=O)N[C@@H]([C@@H](C)O)C(=O)N[C@@H](CC(=O)O)C(=O)N[C@@H](Cc5ccc(O)cc5)C(=O)NCC(=O)N4)C(N)=O)nn2)nn1)C(N)=O)CSCCC3=O [BCY5464] | 37.3
4 | 500 | CSCC[C@@H]1NC(=O)[C@H](Cc2ccc(O)cc2)NC(=O)[C@@H](NC(=O)[C@H](C)NC(C)=O)CSCCC(=O)N2CN3CN(C2)C(=O)CCSC[C@H](NC(=O)[C@H](Cc2c[nH]c4ccccc24)NC(=O)[C@H](CCC(=O)O)NC1=O)C(=O)N[C@@H](CC(=O)O)C(=O)N[C@@H](C(C)C)C(=O)N[C@@H]([C@@H](C)O)C(=O)N[C@@H](CC(=O)O)C(=O)N[C@@H](Cc1ccc(O)cc1)C(=O)NCC(=O)N[C@H](C(=O)N[C@@H](CCCCNC(=O)CCc1cn(CCOCCOCCOCCOCCOCCOCCOCCOCCOCCOCCNC(=O)CCCC(=O)NCCOCCOCCOCCOCCOCCOCCOCCOCCOCCOCCn2cc(CCC(=O)NCCCC[C@H](NC(=O)[C@@H]4CSCCC(=O)N5CN6CN(C5)C(=O)CCSC[C@H](NC(=O)[C@H](Cc5c[nH]c7ccccc57)NC(=O)[C@H](CCC(=O)O)NC(=O)[C@H](CCSC)NC(=O)[C@H](Cc5ccc(O)cc5)NC(=O)[C@@H](NC(=O)[C@H](C)NC(C)=O)CSCCC6=O)C(=O)N[C@@H](CC(=O)O)C(=O)N[C@@H](C(C)C)C(=O)N[C@@H]([C@@H](C)O)C(=O)N[C@@H](CC(=O)O)C(=O)N[C@@H](Cc5ccc(O)cc5)C(=O)NCC(=O)N4)C(N)=O)nn2)nn1)C(N)=O)CSCCC3=O [BCY5456] (I: Ac-ACYMEWCDVTDYGCK-NH2 / II: Ac-ACYMEWCDVTDYGCK-NH2; linker I:2-I:7-I:14, II:2-II:7-II:14 via TATA; linker I:15-II:15 via X5) | –
